In PubChem BioAssay (NCI):
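Five concentrations, 48 hours, 96-well plates. TGI: concentration producing complete growth inhibition.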

What was measured:
Assay in all cases: NCI tumour cell line growth inhibition, 48 h
[1] = test system: COLO 205 colon
[2] = test system: M14 melanoma
[3] = test system: HOP-92 NSCLC
[4] = test system: HT29 colon
[5] = test system: OVCAR-5 ovarian
[6] = test system: K-562 leukemia
[7] = test system: NCI-H522 lung
[8] = test system: UACC-62 melanoma
[9] = test system: M19-MEL melanoma
[10] = test system: IGROV1 ovarian
[11] = test system: SK-OV-3 ovarian
[12] = test system: KM12 colon
[13] = test system: SF-295 CNS
[14] = test system: KM20L2 colon
[15] = test system: CCRF-CEM leukemia
[16] = test system: SF-268 CNS
[17] = test system: SNB-19 CNS
[18] = test system: SK-MEL-2 melanoma
[19] = test system: OVCAR-4 ovarian
[20] = test system: LXFL 529 NSCLC
[21] = test system: ACHN renal
[22] = test system: HOP-62 NSCLC
[23] = test system: SNB-75 CNS
[24] = test system: NCI-H460 lung
[25] = test system: MALME-3M melanoma
[26] = test system: UACC-257 melanoma
[27] = test system: RPMI-8226 leukemia
[28] = test system: MOLT-4 leukemia
[29] = test system: UO-31 renal
[30] = test system: 786-0 renal
[31] = test system: SK-MEL-28 melanoma
[32] = test system: SNB-78 CNS
[33] = test system: DMS 114 small cell lung
[34] = test system: A498 renal
[35] = test system: U251 CNS
[36] = test system: SR leukemia
[37] = test system: NCI-H23 lung
[38] = test system: HCT-116 colon
[39] = test system: OVCAR-3 ovarian
[40] = test system: OVCAR-8 ovarian
[41] = test system: HCT-15 colon
[42] = test system: SK-MEL-5 melanoma
[43] = test system: LOX IMVI melanoma
[44] = test system: HL-60(TB) leukemia
[45] = test system: EKVX NSCLC
[46] = test system: NCI-H226 lung
[47] = test system: SF-539 CNS
[48] = test system: SW-620 colon
[49] = test system: TK-10 renal
[50] = test system: SN12C renal
[51] = test system: DLD-1 colon
[52] = test system: RXF 393 renal
[53] = test system: A549 NSCLC
[54] = test system: CAKI-1 renal
[55] = test system: HCC-2998 colon

Measured: TGI

COc1ccc2c(c1)CC[C@@H]1C2CC[C@]2(C)C(=O)N(N)C(=O)CC12 (stereo partly drawn)
not listed: [40] | [41] | [42] | [43] | [44] | [45] | [46] | [47] | [48] | [49] | [50] | [51] | [52] | [53] | [54] | [55]
> 100 µM: all other assays above

COC(=O)/C(=C/c1ccc(OC)cc1)NC(=O)c1ccccc1
not listed: [1] | [7] | [9] | [22] | [32] | [39]
> 100 µM: all other assays above
